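Cells were grown in 96-well plates and exposed to each compound for 48 hours at five concentrations; endpoints were interpolated linearly between bracketing concentrations, or set to the highest concentration if not reached. GI50 = concentration required for 50% inhibition of growth. TGI denotes the concentration required for complete inhibition of growth.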
Legend:
Test in all cases: NCI anticancer screen, dose series, 48 h
SK-MEL-2 melanoma = test system: SK-MEL-2 melanoma
A549 NSCLC = test system: A549 NSCLC
SNB-19 CNS = test system: SNB-19 CNS
CCRF-CEM leukemia = test system: CCRF-CEM leukemia
OVCAR-3 ovarian = test system: OVCAR-3 ovarian
ACHN renal = test system: ACHN renal
RXF 393 renal = test system: RXF 393 renal
EKVX NSCLC = test system: EKVX NSCLC
786-0 renal = test system: 786-0 renal
SK-MEL-28 melanoma = test system: SK-MEL-28 melanoma

SMILES	TGI (SK-MEL-2 melanoma)	TGI (A549 NSCLC)	TGI (SNB-19 CNS)	TGI (CCRF-CEM leukemia)	TGI (OVCAR-3 ovarian)	TGI (ACHN renal)	TGI (RXF 393 renal)	TGI (EKVX NSCLC)	TGI (786-0 renal)	TGI (SK-MEL-28 melanoma)	GI50 (A549 NSCLC)	GI50 (SNB-19 CNS)	GI50 (CCRF-CEM leukemia)	GI50 (OVCAR-3 ovarian)	GI50 (RXF 393 renal)	GI50 (786-0 renal)	GI50 (SK-MEL-2 melanoma)	GI50 (SK-MEL-28 melanoma)	GI50 (ACHN renal)	GI50 (EKVX NSCLC)
Nn1c(N=Nc2c(O)[nH]c3c(Cl)cc(Cl)cc23)n[nH]c1=S	> 100 µM	> 100 µM	> 100 µM	> 100 µM	> 100 µM	> 100 µM	> 100 µM	> 100 µM	> 100 µM	–	–	–	–	–	–	–	–	–	–	–
O=C(Nc1ccc(Cl)c(Cl)c1)OCCN1c2ccccc2Sc2ccccc21	–	> 10 µM	> 10 µM	> 10 µM	> 10 µM	> 10 µM	–	–	> 10 µM	> 10 µM	–	–	–	–	–	–	–	–	–	–
O=C(O)CCSC(=O)Nc1ccc(N=Nc2ccccc2)cc1	–	> 100 µM	> 100 µM	> 100 µM	> 100 µM	> 100 µM	> 100 µM	> 100 µM	> 100 µM	> 100 µM	–	–	–	–	–	–	–	–	–	–
COc1ccc(Nc2cc(C)nc(N3CCN(c4ccnc5cc(Cl)ccc45)CC3)n2)cc1	–	> 100 µM	> 100 µM	> 100 µM	6.15 µM	–	21 µM	–	> 100 µM	–	2 µM	4.83 µM	2.85 µM	2.31 µM	2.79 µM	2.61 µM	–	–	–	–
COC(=O)C1=C(c2ccc3c(c2)OCO3)OC(c2cc(OC)c(OC)c(OC)c2)C1 (stereo not drawn)	–	> 100 µM	> 100 µM	> 100 µM	4.26 µM	> 100 µM	–	> 100 µM	> 100 µM	> 100 µM	–	–	–	–	–	–	–	–	–	–
COc1cc(Cl)cc(-c2nn(-c3cccc(NC(=O)Nc4ccc(Cl)c(C(F)(F)F)c4)c3)cc2-c2ccncc2)c1	4.21 µM	10.8 µM	17.6 µM	3.65 µM	2.66 µM	10.2 µM	4.42 µM	–	4.27 µM	8.41 µM	0.678 µM	2.93 µM	0.613 µM	0.451 µM	1.71 µM	1.59 µM	1.79 µM	2.41 µM	0.762 µM	–
Cc1ccc(-c2nc(N3CCCNCC3)c3oc(-c4ccc(C)cc4)nc3n2)cc1	45.4 µM	3.13 µM	3.25 µM	–	3.1 µM	3.13 µM	3.14 µM	> 100 µM	3.25 µM	3.51 µM	1.72 µM	1.77 µM	–	1.73 µM	1.65 µM	1.76 µM	21.3 µM	1.93 µM	1.75 µM	4.09 µM
O=C(O)c1ccccc1NC(=O)C1CCCCC1	> 100 µM	> 100 µM	> 100 µM	> 100 µM	> 100 µM	> 100 µM	–	> 100 µM	> 100 µM	> 100 µM	–	–	–	–	–	–	–	–	–	–
O=C(CC1C(=O)Nc2ccccc2S1=O)Nc1ccc(Cl)cc1 (stereo not drawn)	> 100 µM	> 100 µM	> 100 µM	–	> 100 µM	> 100 µM	–	–	> 100 µM	> 100 µM	–	–	–	–	–	–	–	–	–	–
CC1(C)OC(=O)C=C([O-])O1.CC1(C)OC(=O)C=C([O-])O1.CC[O-].CC[O-].[Ti+4]	> 100 µM	> 100 µM	> 100 µM	–	> 100 µM	> 100 µM	–	> 100 µM	> 100 µM	> 100 µM	> 100 µM	> 100 µM	–	> 100 µM	–	> 100 µM	> 100 µM	> 100 µM	> 100 µM	> 100 µM

— PubChem BioAssay (NCI)
